#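 Where inhibition never reached the appropriate level, the endpoint shown equals the highest concentration tested. Otherwise, values were interpolated linearly from a five-concentration, 48-hour dose response in 96-well plates. The concentration for 50% growth inhibition is given as GI50. TGI: concentration producing complete growth inhibition.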
# Legend:
# Assay in all cases: growth of human tumour cells (NCI), 48 h
# NCI-H522 lung = test system: NCI-H522 lung
# NCI-H226 lung = test system: NCI-H226 lung
# M14 melanoma = test system: M14 melanoma
# K-562 leukemia = test system: K-562 leukemia
# SK-MEL-2 melanoma = test system: SK-MEL-2 melanoma
# SNB-19 CNS = test system: SNB-19 CNS
# UO-31 renal = test system: UO-31 renal
# SK-MEL-28 melanoma = test system: SK-MEL-28 melanoma
# NCI/ADR-RES ovarian = test system: NCI/ADR-RES ovarian
# HL-60(TB) leukemia = test system: HL-60(TB) leukemia
SMILES,GI50 (NCI-H522 lung) [µM],TGI (NCI-H522 lung) [µM],GI50 (NCI-H226 lung) [µM],TGI (NCI-H226 lung) [µM],GI50 (M14 melanoma) [µM],TGI (M14 melanoma) [µM],GI50 (K-562 leukemia) [µM],TGI (K-562 leukemia) [µM],GI50 (SK-MEL-2 melanoma) [µM],TGI (SK-MEL-2 melanoma) [µM],GI50 (SNB-19 CNS) [µM],TGI (SNB-19 CNS) [µM],GI50 (UO-31 renal) [µM],TGI (UO-31 renal) [µM],GI50 (SK-MEL-28 melanoma) [µM],TGI (SK-MEL-28 melanoma) [µM],GI50 (NCI/ADR-RES ovarian) [µM],TGI (NCI/ADR-RES ovarian) [µM],TGI (HL-60(TB) leukemia) [µM]
Nc1c(C(=O)Nc2ccccc2)sc2nc3c(cc12)CN(Cc1ccccc1)CC3,32.5,> 100,4.91,> 100,30.8,> 100,9.1,> 100,20.3,> 100,18.3,> 100,6.14,> 100,23.2,> 100,16.3,> 100,–
O=C(CN(/C=C/C(=O)C(F)(F)F)c1ccccc1)c1ccc(Cl)c(Cl)c1,11.1,25,13.7,27.9,–,–,15.7,37.6,12.4,26.6,20.3,46.4,11.4,24.3,23.9,56.2,15.2,31.3,–
CC#CC1C(OC(=O)c2ccccc2)CCCC1(CI)N=[N+]=[N-] (stereo not drawn),–,63.8,–,> 100,–,> 100,–,> 100,–,> 100,–,–,–,> 100,–,–,–,–,42.2
C=CC1C(OC2OC(CO)C(O)C(O)C2O)OC=C(C(=O)OC)C1CC=O (stereo not drawn),–,–,–,> 100,–,> 100,–,> 100,–,> 100,–,> 100,–,> 100,–,> 100,–,–,> 100
N#Cc1cc([N+](=O)[O-])ccc1NC(=O)/C(=N/N)C(C(=O)c1ccc(Cl)c(Cl)c1)C1OC(=O)c2ccccc21 (stereo not drawn),–,> 100,–,> 100,–,–,–,> 100,–,> 100,–,> 100,–,> 100,–,> 100,–,–,–
CC(=O)Nc1ccc(/C=C/C(=O)c2sc(-c3nc(C)c(C(=O)/C=C/c4ccc(NC(C)=O)cc4)s3)nc2C)cc1,–,> 100,–,> 100,–,> 100,–,> 100,–,> 100,–,> 100,–,> 100,–,> 100,–,–,> 100
COC(=O)C1=C(O)c2cc3c(cc2[C@H](c2cc(OC)c(OC)c(OC)c2)C1C(=O)OC)OCO3 (stereo partly drawn),–,–,–,> 100,–,> 100,–,> 100,–,–,–,> 100,–,> 100,–,> 100,–,–,> 100
CSc1ccccc1C#Cc1ccccc1C#CCCCCO,14.2,29.4,19,43.6,–,–,6.19,54.4,17.9,35.4,17.8,33.5,12.6,25.4,15.1,31.2,11.5,31.1,–
Cc1c(Cl)cccc1NC1=C(Cl)C(=O)N(Cc2ccccc2)C1=O,17,> 100,12.1,38.4,10.2,22,4.25,16.9,27.5,89.9,22.1,61.5,6.96,24.4,15.1,30.7,5,20.9,–
CCOC(=O)C1=C(Nc2cccc3ccccc23)OC/C1=N\NC(=O)c1ccccc1O,–,24.8,–,> 100,–,> 100,–,> 100,–,> 100,–,> 100,–,> 87.6,–,> 100,–,–,37.8
COC(=O)C1=C(C(=O)OC)SC(=C(N=Nc2ccccc2)c2ccccc2)S1,–,> 100,–,> 100,–,> 100,–,> 100,–,> 100,–,> 100,–,> 100,–,> 100,–,–,> 100
O=c1[nH]c(-c2ccc(-c3nc4cc([N+](=O)[O-])ccc4c(=O)[nH]3)cc2)nc2cc([N+](=O)[O-])ccc12,–,> 100,–,> 100,–,> 100,–,> 100,–,> 100,–,> 100,–,> 100,–,> 100,–,–,> 100
CC12CC(OC(=O)[C@]1(C)O)[C@@H]([C@]1(O)CC[C@H]3[C@@H]4C[C@H]5O[C@]56[C@@H](O)C=CC(=O)[C@]6(C)[C@H]4CC[C@@]31C)C2 (stereo partly drawn),–,2.92,–,> 100,–,24.9,–,13.8,–,21,–,> 100,–,16.8,–,30.2,–,68.5,–
Nc1n[nH]c2cccc(C#Cc3cccc(C(=O)Nc4cc(CN5CCOCC5)cc(C(F)(F)F)c4)c3)c12,3.62,16.2,1.72,9.68,2.13,8.32,0.0651,2.41,2.62,10.6,5.23,20.3,2.03,11.1,2.99,12.1,4.59,23.3,–
O=C1NC2C=CN(Cc3ccccc3)C=C2C(=O)N2CCCC12 (stereo not drawn),–,> 100,–,> 100,–,> 100,–,–,–,> 100,–,> 100,–,> 100,–,> 100,–,–,> 100
CCC(=O)N(O)C(C)(C)C,–,> 100,–,> 100,–,> 100,–,> 100,–,–,–,> 100,–,> 100,–,> 100,–,–,> 100

SMILES,GI50 (NCI-H522 lung) [µM],TGI (NCI-H522 lung) [µM],GI50 (NCI-H226 lung) [µM],TGI (NCI-H226 lung) [µM],GI50 (M14 melanoma) [µM],TGI (M14 melanoma) [µM],GI50 (K-562 leukemia) [µM],TGI (K-562 leukemia) [µM],GI50 (SK-MEL-2 melanoma) [µM],TGI (SK-MEL-2 melanoma) [µM],GI50 (SNB-19 CNS) [µM],TGI (SNB-19 CNS) [µM],GI50 (UO-31 renal) [µM],TGI (UO-31 renal) [µM],GI50 (SK-MEL-28 melanoma) [µM],TGI (SK-MEL-28 melanoma) [µM],GI50 (NCI/ADR-RES ovarian) [µM],TGI (NCI/ADR-RES ovarian) [µM],TGI (HL-60(TB) leukemia) [µM]
C/C=C/C=C/CCCCCCCCCCCCCC1(OC)C=CC(CC(=O)OC)OO1 (stereo not drawn),1.58,3.09,–,–,–,28.6,–,> 50.1,–,39,–,31.7,–,7.94,–,28.7,–,–,18.4
COc1cc(C)c(O)c(C(=O)O)c1,–,> 100,–,> 100,–,> 100,–,> 100,–,> 100,–,> 100,–,> 100,–,> 100,–,–,–
Cc1ccc(Sc2ccc(C)cc2[N+](=O)[O-])c([N+](=O)[O-])c1,–,> 100,–,> 100,–,> 100,–,> 100,–,> 100,–,> 100,–,> 100,–,> 100,–,–,> 100
C=C1CCC2[C@@H](CCC3[C@]2(C)CCC[C@]3(C)C(=O)OC)C1CCO (stereo partly drawn),–,21.6,–,32.1,–,26.5,–,26.1,–,36.6,–,28,–,31.7,–,28.1,–,–,9.36
CC(=O)NC1CC2Oc3ccc(C)cc3C(C)(O2)C1O (stereo not drawn),–,> 100,–,> 100,–,> 100,–,> 100,–,> 100,–,> 100,–,> 100,–,> 100,–,–,> 100
CCN(CC)CC(C(=O)Nc1c(C)cccc1C)/C(C)=N\NC(=O)c1ccncc1 (stereo not drawn),–,> 100,–,> 100,–,> 100,–,–,–,> 100,–,> 100,–,> 100,–,> 100,–,–,–
COc1cc(/C=C/C(=O)c2sc(NNC(C)=O)nc2C)ccc1O,–,> 100,–,> 100,–,–,–,> 100,–,> 100,–,–,–,> 100,–,> 100,–,–,> 100
C=CCNC(=O)NCCCC(NC(C)=O)C(=O)NCc1ccccc1 (stereo not drawn),–,> 100,–,> 100,–,> 100,–,> 100,–,> 100,–,> 100,–,> 100,–,> 100,–,–,> 100
O=C(CCc1cc(-c2ccccc2)nc(=S)[nH]1)Nc1ccccc1[N+](=O)[O-],–,> 100,–,> 100,–,> 100,–,> 100,–,> 100,–,> 100,–,> 100,–,> 100,–,–,> 100
O=C1CCC2(c3ccccc3)Nc3ncccc3N12 (stereo not drawn),–,> 100,–,> 100,–,> 100,–,> 100,–,> 100,–,–,–,> 100,–,> 100,–,–,> 100
CCOC(=O)c1nc(-c2ccccc2)oc1OCC,–,> 100,–,> 100,–,> 100,–,> 100,–,–,–,> 100,–,–,–,> 100,–,–,> 100
CS/C(=N\c1nccs1)NC(=O)c1cccc(Cl)c1,–,> 100,–,> 100,–,> 100,–,> 100,–,> 100,–,> 100,–,> 100,–,> 100,–,–,> 100
O=C(Nc1nc(=S)c2c(ncn2CCO)[nH]1)c1ccccc1,–,> 100,–,> 100,–,> 100,–,> 100,–,> 100,–,> 100,–,> 100,–,–,–,–,> 100
O=C1c2ccccc2CC1C1(O)C(=O)Nc2ccccc21 (stereo not drawn),–,> 100,–,> 100,–,> 100,–,> 100,–,> 100,–,> 100,–,> 100,–,> 100,–,–,> 100
COC(=O)c1cc(-c2cccn2C)c2c(c1C(=O)OC)c1ccccc1n2C,–,80.9,–,–,–,> 100,–,> 100,–,> 100,–,> 100,–,> 100,–,> 100,–,–,> 100
CCCC(Sc1ccccc1)P(=O)(c1ccccc1)c1ccccc1 (stereo not drawn),–,> 100,–,–,–,> 100,–,> 100,–,–,–,> 100,–,> 100,–,> 100,–,–,52.6
